Test results reported in patent US20220023306A1, “USE OF A PPAR-DELTA AGONIST IN THE TREATMENT OF FATTY ACID OXIDATION DISORDERS (FAOD)” (Reneo Pharmaceuticals, Inc., priority 2019, published 2022).

Legend:
FXR = molecular target: T1, FXR (Homo sapiens, UniProt Q96RI1); experiment: activity on nuclear receptor FXR; assay type: cell-based
T1 sequence (Q96RI1 1-486): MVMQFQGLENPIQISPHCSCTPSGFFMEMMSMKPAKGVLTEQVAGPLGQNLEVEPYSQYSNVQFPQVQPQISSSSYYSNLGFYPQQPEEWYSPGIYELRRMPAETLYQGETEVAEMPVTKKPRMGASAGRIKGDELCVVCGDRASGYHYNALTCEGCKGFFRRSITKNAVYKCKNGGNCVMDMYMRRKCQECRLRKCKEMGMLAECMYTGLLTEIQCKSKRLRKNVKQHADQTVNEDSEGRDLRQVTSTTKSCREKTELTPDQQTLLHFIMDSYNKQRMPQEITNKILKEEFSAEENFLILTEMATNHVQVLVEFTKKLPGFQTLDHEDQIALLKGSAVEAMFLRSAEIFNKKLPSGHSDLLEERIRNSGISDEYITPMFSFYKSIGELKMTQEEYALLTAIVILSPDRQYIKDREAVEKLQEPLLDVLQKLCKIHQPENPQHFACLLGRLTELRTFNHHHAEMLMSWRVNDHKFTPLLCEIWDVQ

LXRα = molecular target: T2, LXRα (Homo sapiens, UniProt Q13133); experiment: activity on nuclear receptor LXRα; assay type: cell-based
T2 sequence (Q13133 1-447): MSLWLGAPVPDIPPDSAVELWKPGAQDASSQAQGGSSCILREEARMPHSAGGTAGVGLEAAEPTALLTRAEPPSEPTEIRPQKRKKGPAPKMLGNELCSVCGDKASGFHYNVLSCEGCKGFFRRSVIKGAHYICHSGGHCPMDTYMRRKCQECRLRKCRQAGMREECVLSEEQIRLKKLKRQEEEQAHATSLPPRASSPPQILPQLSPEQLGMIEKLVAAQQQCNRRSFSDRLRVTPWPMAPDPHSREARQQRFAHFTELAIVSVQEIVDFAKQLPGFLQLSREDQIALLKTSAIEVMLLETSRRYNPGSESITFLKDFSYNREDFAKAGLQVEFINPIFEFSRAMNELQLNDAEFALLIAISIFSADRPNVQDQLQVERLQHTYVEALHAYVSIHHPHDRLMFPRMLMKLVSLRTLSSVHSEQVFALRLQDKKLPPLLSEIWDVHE

rat muscle cell lines = experiment: fatty acid oxidation in rat muscle cell lines; assay type: cell-based
subjects with FAOD = experiment: FAOD clinical trial with Compound 1; assay type: in vivo, human
Protocol: In some embodiments, outcome measures are assessed with tests that assess exercise tolerance. In some embodiments, exercise tolerance is assessed with exercise tests. Exercise tests include, but are not limited to, submaximal treadmill, walking tests (e.g. without limitation, 6 minute; 12 minute walks), run tests, treadmill and ergometry exercise testing. In some embodiments, exercise tests are used in combination with the Borg Scale of perceived exertion. In some embodiments, exercise tests are performed according to guidelines set forth by the American Thoracic Society (ATS).
In some embodiments, stable isotope methods are used to measure in vivo residual fatty acid oxidation capacity. Enrichment of ^13CO2 only occurs by one complete round of fatty acid oxidation. A representative protocol is as follows. A fasting blood sample is obtained after an overnight fast. Prior to breakfast, a resting indirect calorimetry is measured. Subjects are then given a meal (e.g a shake) containing 17-mg/kg ^13C-oleic acid. Breath samples are collected prior to (time 0) and again hourly at 1, 2, 3, 4, 5, 6, 7, and 8 hours following the ^13C-oleic administration. ^13C in breath samples are measured as a ratio of ^13C/^12C using the Delta Plus IRMS (Finnigan MAT, Bremen, Germany). Recovery is calculated as ^13C divided by the dose of ^13C administered. The amount of excess ^13C in breath is a measure of residual fatty acid oxidation capacity in subjects with disorders of long-chain fatty acid oxidation.
In some embodiments, improvements in fatty acid oxidation in subjects with a FAOD that are treated with a PPARδ agonist compound described herein (e.g. Compound 1, or a pharmaceutically acceptable salt thereof) are measured with a suitable ^13CO2 breath sample test. In some embodiments, a suitable ^13CO2 breath sample test comprises the steps of: 1) providing the subject a meal comprising ^13C-enriched fatty acid(s); 2) administering to the subject a PPARδ agonist compound, or a pharmaceutically acceptable salt thereof, after the consumption of the meal; and 3) collecting breath samples from the subject at regular intervals and measuring the relative amount of ^13CO2 to ^12CO2 in the breath samples. In some embodiments, the breath samples are collected about every hour. In some embodiments, the meal is enriched with a 13C labeled fatty acid, wherein the fatty acid is butyric acid, caproic acid, caprylic acid, capric acid, lauric acid, myristic acid, palmitic acid, stearic acid, arachidic acid, behenic acid, lignoceric acid, caproleic acid, lauroleic acid, myristoleic acid, palmitoleic acid, oleic acid, elaidic acid, vaccenic acid, gadoleic acid, erucic acid, brassidic acid, nervonic acid, linoleic acid, alpha-linolenic acid, gamma-linolenic acid, columbinic acid, stearidonic acid, mead acid, dihomo-γ-linolenic acid, arachidonic acid, eicosapentaenoic acid, docosapentaenoic acid, or docosahexaenoic acid.
A non-limiting example of a fatty acid oxidation disorder (FAOD) clinical trial in humans is described below. […]

Compound: Cc1cc(OC/C=C(/c2ccc(F)cc2)c2ccc(C#CCN3CCOCC3)cc2)ccc1OCC(=O)O [Compound 1, (E)-[4-[3-(4-Fluorophenyl)-3-[4-[3-(morpholin-4-yl)propynyl]phenyl]allyloxy]-2-methyl-phenoxy]acetic acid]
- activity on FXR (FXR): did not show any
- activity on LXRα (LXRα): did not show any
- fatty acid oxidation (rat muscle cell lines): dose-dependent increase
- exercise capacity (subjects with FAOD; 50 mg once daily for 12 weeks): Improvements
- exhaled 13CO2 (subjects with FAOD; 50 mg once daily for 12 weeks): trend towards increases
- heart rate during the last ten minutes of exercise (subjects with FAOD; 50 mg once daily for 12 weeks): decreases
- distance walked during a 12-minute walk test (subjects with FAOD; 50 mg once daily for 12 weeks, FIG. 1): increase
- tolerability (subjects with FAOD; subjects that participated in the study): well tolerated
